The source of these data is patent US7166609B2, “Pyrimidine-4,6-dicarboxylic acid diamides for selectively inhibiting collagenases” (Sanofi-Aventis Deutschland GmbH, priority 2002, dated 2007).

The target in the assay is T1, catalytic domain of human collagenase 3 (MMP-13) (Homo sapiens, UniProt P45452).
T1 construct: Determining the enzyme activity of the catalytic domain of human collagenase 3 (MMP-13); purchased INVITEK, Berlin 30 100 803
Nature of the assay: Enzyme activity of the catalytic domain of human collagenase 3 (MMP-13), fluorogenic substrate. The format is biochemical. How it is done: Determining the enzyme activity of the catalytic domain of human collagenase 3 (MMP-13).
Activating the proenzyme:
2 parts by volume of proenzyme are incubated with 1 part by volume of APMA solution at 37° C. for 1.5 hours. The APMA solution is prepared from a 10 mmol/L solution of p-aminophenylmercuric acetate in 0.1 mmol/L NaOH by diluting with 3 parts by volume of tris/HCl buffer, pH 7.5 (see below). The pH is adjusted to between 7.0 and 7.5 by adding 1 mmol/L HCl. After the enzyme has been activated, it is diluted to a concentration of 1.67 μg/ml using the tris/HCl buffer.
In order to measure the enzyme activity, 10 μL of enzyme solution are incubated for 15 minutes with 10 μL of a 3% (v/v) buffered solution of dimethyl sulfoxide (reaction 1). In order to measure the enzyme inhibitor activity, 10 μL of enzyme solution are incubated with 10 μL of a 3% (v/v) buffered solution of dimethyl sulfoxide containing the enzyme inhibitor (reaction 2).
In the case of both reaction 1 and reaction 2, the enzyme reaction is monitored by fluorescence spectroscopy (328 nm (extinction)/393 nm (emission)) after adding 10 μL of a 3% (v/v) aqueous solution of dimethyl sulfoxide containing 0.75 mmol of the substrate/L.
The enzyme activity is depicted as increase in extinction/minute.
The effect of the inhibitor is calculated as a percentage inhibition using the following formula: % inhibition=100−[(increase in extinction/minute in reaction 2)/(increase in extinction/minute in reaction 1)×100].
The IC50, i.e. the inhibitor concentration which is required for inhibiting the enzyme activity by 50%, is determined graphically by plotting the percentage inhibitions at different inhibitor concentrations.
The buffer solution contains 0.05% Brij (Sigma, Deisenhofen, Germany) and 0.1 mol of tris/HCl/L, 0.1 mol of NaCl/L and 0.01 mol of CaCl2/L (pH=7.5). The enzyme solution contains 1.67 μg of the enzyme domain/mL.
The substrate solution contains 0.75 mmol/L of the fluorogenic substrate (7-methoxycoumarin-4-yl)acetyl-Pro-Leu-Gly-Leu-3-(2′,4′-dinitrophenyl)-L-2,3-diaminopropionyl-Ala-Arg-NH2 (Bachem, Heidelberg, Germany).

Setting [1] is: catalytic domain, activated proenzyme, pH 7.5, read-out: IC50 MMP13.

SMILES strings stand for the structures. pIC50: −log10 of the molar value. Read-outs that look alike come from different tables or passages of the source.

Take `O=C(NCCN1CCOCC1)c1ccc(CNC(=O)c2cc(C(=O)NCc3ccc4c(c3)CCO4)ncn2)cc1` [Example 122]: the negative-log IC50 (pIC50) – broadly, the negative decadic logarithm of the IC50, by convention in mol/L – under setting [1] was 7.37.
On the same count and under the same terms, for `COc1cccc(CNC(=O)c2cc(C(=O)NCc3ccc(C(=O)N4CCNC(=O)C4)cc3)ncn2)c1` [Example 73] the value was 7.60; for `Cc1cc(CNC(=O)c2cc(C(=O)NCc3ccc(C(=O)N4CCOCC4)cc3)ncn2)ccc1F` [Example 87], 7.62; for `O=C(O)CNC(=O)c1ccc(CNC(=O)c2cc(C(=O)NCc3ccc4c(c3)CCO4)ncn2)cc1` [Example 98], 7.70.
On the same count and under the same terms, for `CC#CCOC(=O)Nc1ccc(CNC(=O)c2cc(C(=O)NCc3cccc(OC)c3)ncn2)cc1` [Example 139] the value was 8.00; for `Cc1cc(CNC(=O)c2cc(C(=O)NCc3ccc(C(=O)NCCN4CCOCC4)cc3)ncn2)ccc1F` [Example 105], 7.64.
For `CS(=O)(=O)NC(=O)Nc1ccc(CNC(=O)c2cc(C(=O)NCc3ccc(F)c(Cl)c3)ncn2)cc1` [Example 63], the pIC50 under setting [1] is 8.05.
In turn, `Cc1cc(CNC(=O)c2cc(C(=O)NCc3ccc(C(=O)N4CCC(=O)CC4)cc3)ncn2)ccc1F` [Example 65] showed a pIC50 of 7.82.
Take `Cc1cc(CNC(=O)c2cc(C(=O)NCc3ccc(NC(=O)NS(C)(=O)=O)cc3)ncn2)ccc1F` [Example 83]: the pIC50 under setting [1] was 8.30.
With `Cc1cc(CNC(=O)c2cc(C(=O)NCc3ccc(C(=O)N4CCC(O)CC4)cc3)ncn2)ccc1F` [Example 69], the pIC50 under setting [1] was 7.49.
As for `COc1cccc(CNC(=O)c2cc(C(=O)NCc3ccc(C(=O)NO)cc3)ncn2)c1` [Example 89], the pIC50 under setting [1] is 7.74.
On to `CS(=O)(=O)NC(=O)Nc1ccc(CNC(=O)c2cc(C(=O)NCc3ccc4c(c3)CCO4)ncn2)cc1` [Example 84], for which the pIC50 under setting [1] is 8.49.
The same measure, in the same setting: for `COc1cccc(CNC(=O)c2cc(C(=O)NCc3ccc(NC(=O)NC(=O)c4ccccc4)cc3)ncn2)c1` [Example 147] the value was 8.52; for `O=C(NO)c1ccc(CNC(=O)c2cc(C(=O)NCc3ccc4c(c3)CCO4)ncn2)cc1` [Example 94], 7.70.
Same read-out and setting: for `COC(=O)CNC(=O)c1ccc(CNC(=O)c2cc(C(=O)NCc3ccc(F)c(C)c3)ncn2)cc1` [Example 106] the value was 7.40.
The same measure, in the same setting: for `COc1cccc(CNC(=O)c2cc(C(=O)NCc3ccc(NC(=O)NC(=O)C4CCCCC4)cc3)ncn2)c1` [Example 125] the value was 8.40; for `COc1cccc(CNC(=O)c2cc(C(=O)NCc3ccc(NC(=O)OC(C)C)cc3)ncn2)c1` [Example 6], 7.70.
`COc1cccc(CNC(=O)c2cc(C(=O)NCc3ccc(C(=O)NC4CCNCC4)cc3)ncn2)c1` [Example 109]: the pIC50 under setting [1] was 7.30.
Same read-out and setting: for `COc1cccc(CNC(=O)c2cc(C(=O)NCc3ccc(NC(=O)NC4CCCCC4)cc3)ncn2)c1` [Example 136] the value was 7.70.
On the same count and under the same terms, for `COc1cccc(CNC(=O)c2cc(C(=O)NCc3cccc(NC(=O)OC(C)C)c3)ncn2)c1` [Example 150] the value was 7.10.
Same read-out and setting: for `CCN(CC)C(=O)c1ccc(CNC(=O)c2cc(C(=O)NCc3ccc(F)c(Cl)c3)ncn2)cc1` [Example 153] the value was 7.82.
`COc1cccc(CNC(=O)c2cc(C(=O)NCc3ccc(C(=O)N4CCC(O)CC4)cc3)ncn2)c1` [Example 67]: the pIC50 under setting [1] is 7.82.
Same read-out and setting: for `COc1cccc(CNC(=O)c2cc(C(=O)NCc3cccc(NC(=O)NS(C)(=O)=O)c3)ncn2)c1` [Example 88] the value was 7.48.
On the same count and under the same terms, for `O=C(NCc1ccc(C(=O)N2CCSCC2)cc1)c1cc(C(=O)NCc2ccc3c(c2)CCO3)ncn1` [Example 72] the value was 8.00; for `COc1cccc(CNC(=O)c2cc(C(=O)NCc3ccc(C(=O)NCCN4CCOCC4)cc3)ncn2)c1` [Example 36], 8.00.
On the same count and under the same terms, for `O=C(NCCO)c1ccc(CNC(=O)c2cc(C(=O)NCc3ccc4c(c3)CCO4)ncn2)cc1` [Example 75a] the value was 7.47.
With `COc1cccc(CNC(=O)c2cc(C(=O)NCc3ccc(C(=O)N4CCSCC4)cc3)ncn2)c1` [Example 71], the pIC50 under setting [1] is 8.05.
Still for that read-out and setting: for `CCN(CC)C(=O)c1ccc(CNC(=O)c2cc(C(=O)NCc3cccc(OC)c3)ncn2)cc1` [Example 3, Pyrimidine-4,6-dicarboxylic acid 4-(4-diethylcarbamoylbenzylamide) 6-(3-methoxybenzylamide)] the value was 8.40.
Regarding `COc1cccc(CNC(=O)c2cc(C(=O)NCc3ccc(C(=O)N4CCC(=O)CC4)cc3)ncn2)c1` [Example 64], the pIC50 was 8.00.
On to `COc1cccc(CNC(=O)c2cc(C(=O)NCc3ccc(NC(=O)CN4CCCC4)cc3)ncn2)c1` [Example 128], for which, under setting [1], the pIC50 was 7.22.
As for `Cc1cc(CNC(=O)c2cc(C(=O)NCc3ccc(C(=O)N4CCSCC4)cc3)ncn2)ccc1F` [Example 70], the negative-log IC50 (pIC50) under setting [1] is 7.62.
`COc1cccc(CNC(=O)c2cc(C(=O)NCc3ccc(NC(=O)NS(=O)(=O)c4ccc(C)cc4)cc3)ncn2)c1` [Example 118]: the negative-log IC50 (pIC50) under setting [1] was 8.62.
The same measure, in the same setting: for `COc1cccc(CNC(=O)c2cc(C(=O)NCc3ccc(C(=O)N4CCN(c5ccncc5)CC4)cc3)ncn2)c1` [Example 115] the value was 7.70.
Still for that read-out and setting: for `O=C(NCc1ccncc1)c1cc(C(=O)NCc2ccc3c(c2)CCO3)ncn1` [Example 4, Pyrimidine-4,6-dicarboxylic acid4-[(2,3-dihydrobenzofuran-5-ylmethyl)amide] 6-[(pyridin-4-ylmethyl)amide]] the value was 7.70.
Take `COc1cccc(CNC(=O)c2cc(C(=O)NCc3ccc(C(=O)N4CCN(C)CC4)cc3)ncn2)c1` [Example 114]: the pIC50 under setting [1] was 7.30.
Still for that read-out and setting: for `Cc1cc(CNC(=O)c2cc(C(=O)NCc3ccc(C(=O)NCCN4CCCC4)cc3)ncn2)ccc1F` [Example 99] the value was 7.30; for `COc1cccc(CNC(=O)c2cc(C(=O)NCc3ccc(NC(=O)NS(=O)(=O)c4ccccc4)cc3)ncn2)c1` [Example 121], 7.52.
The same measure, in the same setting: for `COc1cccc(CNC(=O)c2cc(C(=O)NCc3ccc(NC(=O)NC(C)(C)C)cc3)ncn2)c1` [Example 138] the value was 7.30.
Still for that read-out and setting: for `O=C(NCc1ccc(OCCN2CCOCC2)cc1)c1cc(C(=O)NCc2ccc3c(c2)CCO3)ncn1` [Example 135] the value was 7.70; for `O=C(NCc1ccc2c(c1)CCO2)c1cc(C(=O)NCc2cc(Cl)cs2)ncn1` [Example 129], 7.66.
As to `O=C(NCc1cccnc1)c1cc(C(=O)NCc2ccc3c(c2)OCCO3)ncn1` [Example 44], under setting [1], the pIC50 is 6.70.
The same measure, in the same setting: for `O=C(NCc1ccc(C(=O)N2CCOCC2)cc1)c1cc(C(=O)NCc2ccc3c(c2)CCO3)ncn1` [Example 5, Pyrimidine-4,6-dicarboxylic acid 4-[(2,3-dihydrobenzofuran-5-ylmethyl)amide]6-[4-(morpholine-4-carbonyl)benzylamide]] the value was 8.10.
Still for that read-out and setting: for `COc1cccc(CNC(=O)c2cc(C(=O)NCc3ccc(NC(=O)Nc4cc(Cl)nc(Cl)c4)cc3)ncn2)c1` [Example 137] the value was 7.40; for `COc1cccc(CNC(=O)c2cc(C(=O)NCc3ccc(C(=O)N4CCOCC4)cc3)ncn2)c1` [Example 151], 8.05.
With `CN1CCN(C(=O)c2ccc(CNC(=O)c3cc(C(=O)NCc4ccc5c(c4)CCO5)ncn3)cc2)CC1` [Example 119], under setting [1], the pIC50 is 7.46.
In the case of `Cc1cc(CNC(=O)c2cc(C(=O)NCc3ccc(C(=O)NCCO)cc3)ncn2)ccc1F` [Example 76], the pIC50 under setting [1] was 7.64.
Still for that read-out and setting: for `COc1cccc(CNC(=O)c2cc(C(=O)NCc3ccc(C(=O)NC#N)cc3)ncn2)c1` [Example 86] the value was 8.60.
The same measure, in the same setting: for `COc1cccc(CNC(=O)c2cc(C(=O)NCc3ccc(C(=O)NC(C)(C)C)cc3)ncn2)c1` [Example 96] the value was 7.30; for `N#CNC(=O)c1ccc(CNC(=O)c2cc(C(=O)NCc3ccc4c(c3)CCO4)ncn2)cc1` [Example 85], 8.46.
Regarding `C#CCOC(=O)Nc1ccc(CNC(=O)c2cc(C(=O)NCc3cccc(OC)c3)ncn2)cc1` [Example 144], the pIC50 under setting [1] is 8.05.
The same measure, in the same setting: for `Cc1cc(CNC(=O)c2cc(C(=O)NCc3ccc(C(=O)NO)cc3)ncn2)ccc1F` [Example 93] the value was 7.70; for `CCCNC(=O)c1ccc(CNC(=O)c2cc(C(=O)NCc3cccc(OC)c3)ncn2)cc1` [Example 62], 7.89; for `COc1cccc(CNC(=O)c2cc(C(=O)NCc3ccc(NC(=O)NC(=O)c4cccnc4)cc3)ncn2)c1` [Example 126], 8.64.
The same measure, in the same setting: for `Cc1cc(CNC(=O)c2cc(C(=O)NCc3ccc(C(=O)N4CCNC(=O)C4)cc3)ncn2)ccc1F` [Example 75] the value was 7.15.
